Data reported in paper PMC7530896 (Journal of the American Chemical Society, 2020).

Legend:
[1] = system: UCHL1; experiment: Morpholino injections in zebrafish embryos, tail phenotype; format: in vivo, zebrafish (Danio rerio); settings: 2 dpf zebrafish embryos, 2 ng morpholino
[2] = system: PARK7; experiment: Morpholino injections in zebrafish embryos, heart phenotype; format: in vivo, zebrafish (Danio rerio); settings: 2 dpf zebrafish embryos
[3] = molecular target: T1, purified recombinant human UCHL1 (Homo sapiens, UniProt P09936); experiment: Probe labeling of purified recombinant UCHL1; format: binding; settings: small-molecule probes: nondenaturing SDS-PAGE (no boiling, no β-mercaptoethanol)
T1 sequence (P09936 1-223): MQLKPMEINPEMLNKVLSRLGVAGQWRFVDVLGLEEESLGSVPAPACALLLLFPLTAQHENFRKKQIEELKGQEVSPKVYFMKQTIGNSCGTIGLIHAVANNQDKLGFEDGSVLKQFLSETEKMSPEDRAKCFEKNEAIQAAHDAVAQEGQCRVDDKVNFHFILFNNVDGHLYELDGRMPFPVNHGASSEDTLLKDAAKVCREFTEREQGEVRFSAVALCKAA

| Substance | Tail phenotype % curly tail [1] [%] | further results |
| --- | --- | --- |
| UCHL1MO2: morpholino targeting UCHL1 exon 4, 5′-GTTCCTTAAACATATCCACTTACCA-3′ (all phosphorodiamidate morpholino (PMO)) | 79 | – |
| PARK7MO1: morpholino targeting PARK7 exon 2, 5′-TATGTAAAGTCAGACCTGTTTGTG-3′ (all phosphorodiamidate morpholino (PMO)) | – | abnormal enlarged heart phenotype [2]: ~18% |
| rhodamine-ubiquitin-propargylamide [Rh-Ub-PA] | – | labeling of purified recombinant human UCHL1 [3]: nearly all UCHL1 is labeled |
| UCHL1MO1: morpholino targeting UCHL1, 5′-TATTTCCATCGGTTTCCACTCCATG-3′ (all phosphorodiamidate morpholino (PMO)) | 53 | – |
